How the values were obtained:
[1] = tested on: Phytophthora infestans; assay type: in vivo; details: tomato young plants, preventive spray, 100 ppm of active ingredient, evaluated 7 days after inoculation; 0% = untreated control, 100% = no disease
[2] = Measurement of logP by HPLC on reversed phase columns (EEC directive 79/831 Annex V.A8); assay type: physicochemical; details: pH 2.7, 0.1% formic acid in water / acetonitrile gradient

| Compound | Eff. % [1] [%] | LogP (HCOOH) [2] | chromatographic logP ([2]; reversed phase HPLC column, read-out: LogP (HCOOH)) |
| --- | --- | --- | --- |
| CC(=NOC(=O)Nc1cccc(CON=C(c2ccccc2)c2nnnn2C)n1)C(C)(C)C [Example 7] | 95 | – | – |
| CCC(=NOC(=O)Nc1cccc(CON=C(c2ccccc2)c2nnnn2C)n1)c1ccccc1 [Example 4] | 97 | – | – |
| CC(=NOC(=O)Nc1cccc(CON=C(c2ccccc2)c2nnnn2C)n1)c1ccccc1 [Example 3] | 94 | – | – |
| Cn1nnnc1C(=NOCc1cccc(NC(=O)ON=C(CCl)C(C)(C)C)n1)c1ccccc1 [Example 8] | 93 | – | – |
| CCCCC(C)=NOC(=O)Nc1cccc(CON=C(c2ccccc2)c2nnnn2C)n1 [Example 2] | 92 | 3.96 | – |
| CCCCCCC(C)=NOC(=O)Nc1cccc(CON=C(c2ccccc2)c2nnnn2C)n1 [Example 11] | 90 | 4.79 | – |
| CCCCCC(C)=NOC(=O)Nc1cccc(CON=C(c2ccccc2)c2nnnn2C)n1 [Example 20] | 95 | 4.39 | – |
| CC(=NOC(=O)Nc1cccc(CON=C(c2ccccc2)c2nnnn2C)n1)C(C)C [Example 13] | 95 | – | – |
| CC(C)=NOC(=O)Nc1cccc(CON=C(c2ccccc2)c2nnnn2C)n1 [Example 14] | 92 | – | – |
| CC(=NOC(=O)Nc1cccc(CON=C(c2ccccc2)c2nnnn2C)n1)C1CC1 [Example 18] | 93 | – | – |
| CCC(C)=NOC(=O)Nc1cccc(CO/N=C(/c2ccccc2)c2nnnn2C)n1 [Example 1, [(butan-2-ylideneamino)oxy]({6-[({[(Z)-(1-methyl-1H-tetrazol-5-yl)(phenyl)methylene]amino}oxy)methyl]pyridin-2-yl}amino)methanone] | 95 | – | 3.27 |

Source: patent publication US20130289077A1 (priority 2010, published 2013)
